For the assay, the target named is Acetylcholinesterase (Electrophorus electricus, UniProt O42275). The assay is described as follows: Inhibition of electric eel AChE after 30 mins by Ellman's method.
Acetylcholinesterase, sequence (O42275 whole entry): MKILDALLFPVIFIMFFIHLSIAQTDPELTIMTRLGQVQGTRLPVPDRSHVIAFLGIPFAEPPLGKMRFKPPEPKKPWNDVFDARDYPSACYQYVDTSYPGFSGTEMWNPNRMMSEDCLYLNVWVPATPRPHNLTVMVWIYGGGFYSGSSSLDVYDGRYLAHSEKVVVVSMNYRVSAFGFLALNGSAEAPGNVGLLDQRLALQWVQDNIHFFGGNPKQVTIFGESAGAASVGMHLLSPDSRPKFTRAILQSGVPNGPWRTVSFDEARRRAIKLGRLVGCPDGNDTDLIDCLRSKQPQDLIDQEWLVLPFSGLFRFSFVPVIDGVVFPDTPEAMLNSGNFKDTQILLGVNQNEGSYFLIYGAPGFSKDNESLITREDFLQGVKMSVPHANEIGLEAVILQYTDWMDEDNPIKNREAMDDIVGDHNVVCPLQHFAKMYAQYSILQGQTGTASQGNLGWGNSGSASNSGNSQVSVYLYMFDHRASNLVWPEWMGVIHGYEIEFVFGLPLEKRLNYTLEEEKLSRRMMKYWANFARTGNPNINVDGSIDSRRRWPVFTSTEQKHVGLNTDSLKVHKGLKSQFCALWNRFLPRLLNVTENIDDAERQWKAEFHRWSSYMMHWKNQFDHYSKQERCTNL
For `CN1C/C(=C\c2cccc3ccccc23)C(=O)[C@]2(C1)[C@@H](c1cccc3ccccc13)[C@@H]1CCCCN1[C@@]21C(=O)c2cccc3cccc1c23`, half-maximal inhibition (IC50) required 3.34 µM. In other words, the single-digit micromolar range.

With `Cc1ccc(/C=C2\CN(C)C[C@@]3(C2=O)[C@@H](c2ccc(C)cc2)[C@@H]2CCCCN2[C@@]32C(=O)c3cccc4cccc2c34)cc1`, half-maximal inhibition (IC50) required 2.24 µM.

Molecule `Cc1ccccc1/C=C1\CN(C)C[C@@]2(C1=O)[C@@H](c1ccccc1C)[C@@H]1CSCN1[C@@]21C(=O)c2cccc3cccc1c23` registered a concentration for half-maximal inhibition (IC50) of 6.28 µM.

Molecule `COc1ccc(/C=C2\CN(C)C[C@@]3(C2=O)[C@@H](c2ccc(OC)cc2)[C@@H]2CCCCN2[C@@]32C(=O)c3cccc4cccc2c34)cc1` gave an IC50 of 22.3 µM.

In the case of `CN1C/C(=C\c2ccc(Cl)cc2)C(=O)[C@]2(C1)[C@@H](c1ccc(Cl)cc1)[C@@H]1CCCCN1[C@@]21C(=O)c2cccc3cccc1c23`, the IC50 was found to be 11.6 µM.

`CN1C/C(=C\c2ccccc2Cl)C(=O)[C@]2(C1)[C@@H](c1ccccc1Cl)[C@@H]1CSCN1[C@@]21C(=O)c2cccc3cccc1c23` gave an IC50 of 12.2 µM.

`CN1C/C(=C\c2cccc(F)c2)C(=O)[C@]2(C1)[C@@H](c1cccc(F)c1)[C@@H]1CCCCN1[C@@]21C(=O)c2cccc3cccc1c23` came in with an IC50 of 32.6 µM.

As for `CN1C/C(=C\c2ccc(F)cc2)C(=O)[C@]2(C1)[C@@H](c1ccc(F)cc1)[C@@H]1CSCN1[C@@]21C(=O)c2cccc3cccc1c23`, 15.8 µM corresponded to half-maximal inhibition (IC50). This IC50 is about 2.1-fold lower than that of the molecule before.

For the molecule `CN1C/C(=C\c2ccc(Cl)cc2)C(=O)[C@]2(C1)[C@@H](c1ccc(Cl)cc1)[C@@H]1CSCN1[C@@]21C(=O)c2cccc3cccc1c23`, the IC50 was 11.1 µM.

For `CN1C/C(=C\c2cccc(Cl)c2Cl)C(=O)[C@]2(C1)[C@@H](c1cccc(Cl)c1Cl)[C@@H]1CCCCN1[C@@]21C(=O)c2cccc3cccc1c23`, inhibition was half-maximal at 24.2 µM (IC50). Against the preceding molecule, the IC50 is about 2.2-fold higher.

The molecule `CN1C/C(=C\c2ccc(Br)cc2)C(=O)[C@]2(C1)[C@@H](c1ccc(Br)cc1)[C@@H]1CCCCN1[C@@]21C(=O)c2cccc3cccc1c23` showed a 50% inhibitory concentration (IC50) of 14.1 µM.

For `CN1C/C(=C\c2ccccc2Br)C(=O)[C@]2(C1)[C@@H](c1ccccc1Br)[C@@H]1CCCCN1[C@@]21C(=O)c2cccc3cccc1c23`, the IC50 is 38.3 µM.

`CN1C/C(=C\c2cccc([N+](=O)[O-])c2)C(=O)[C@]2(C1)[C@@H](c1cccc([N+](=O)[O-])c1)[C@@H]1CSCN1[C@@]21C(=O)c2cccc3cccc1c23` displayed an IC50 of 8.1 µM.

Molecule `CN1C/C(=C\c2cccc(Cl)c2Cl)C(=O)[C@]2(C1)[C@@H](c1cccc(Cl)c1Cl)[C@@H]1CSCN1[C@@]21C(=O)c2cccc3cccc1c23` gave an IC50 of 19.1 µM.

The molecule `CN1C/C(=C\c2cccc([N+](=O)[O-])c2)C(=O)[C@]2(C1)[C@@H](c1cccc([N+](=O)[O-])c1)[C@@H]1CCCCN1[C@@]21C(=O)c2cccc3cccc1c23` yielded an IC50 of 25.1 µM.

`CN1C/C(=C\c2ccc([N+](=O)[O-])cc2)C(=O)[C@]2(C1)[C@@H](c1ccc([N+](=O)[O-])cc1)[C@@H]1CSCN1[C@@]21C(=O)c2cccc3cccc1c23`: half-maximal inhibition (IC50) required 4.56 µM.

As to `COc1ccc(/C=C2\CN(C)C[C@@]3(C2=O)[C@@H](c2ccc(OC)cc2)[C@@H]2CSCN2[C@@]32C(=O)c3cccc4cccc2c34)cc1`, it took 12.3 µM to reach half-maximal inhibition (IC50).

Consider `CN1C/C(=C\c2ccccc2F)C(=O)[C@]2(C1)[C@@H](c1ccccc1F)[C@@H]1CSCN1[C@@]21C(=O)c2cccc3cccc1c23`, for which the IC50 stood at 12.6 µM.

In turn, `CN1C/C(=C\c2ccc(Cl)cc2Cl)C(=O)[C@]2(C1)[C@@H](c1ccc(Cl)cc1Cl)[C@@H]1CSCN1[C@@]21C(=O)c2cccc3cccc1c23` had an IC50 of 23.2 µM.

`CN1C/C(=C\c2ccc(Cl)cc2Cl)C(=O)[C@]2(C1)[C@@H](c1ccc(Cl)cc1Cl)[C@@H]1CCCCN1[C@@]21C(=O)c2cccc3cccc1c23` showed an IC50 of 17.3 µM.

In the case of `CN1C/C(=C\c2ccccc2F)C(=O)[C@]2(C1)[C@@H](c1ccccc1F)[C@@H]1CCCCN1[C@@]21C(=O)c2cccc3cccc1c23`, half-maximal inhibition (IC50) required 34.2 µM. This IC50 is about 2-fold higher than that of the molecule before.

With `COc1ccccc1/C=C1\CN(C)C[C@@]2(C1=O)[C@@H](c1ccccc1OC)[C@@H]1CCCCN1[C@@]21C(=O)c2cccc3cccc1c23`, it took 11.6 µM to reach half-maximal inhibition (IC50).

With `Cc1ccccc1/C=C1\CN(C)C[C@@]2(C1=O)[C@@H](c1ccccc1C)[C@@H]1CCCCN1[C@@]21C(=O)c2cccc3cccc1c23`, the IC50 amounted to 3.86 µM.

Turning to `Cc1ccc(/C=C2\CN(C)C[C@@]3(C2=O)[C@@H](c2ccc(C)cc2)[C@@H]2CSCN2[C@@]32C(=O)c3cccc4cccc2c34)cc1`, the IC50 amounted to 1.86 µM. This IC50 lies about 2.1-fold lower than the previous one.

In turn, `CN1C/C(=C\c2cccc3ccccc23)C(=O)[C@]2(C1)[C@@H](c1cccc3ccccc13)[C@@H]1CSCN1[C@@]21C(=O)c2cccc3cccc1c23` had an IC50 of 9.48 µM.

For `CN1C/C(=C\c2ccccc2)C(=O)[C@]2(C1)[C@@H](c1ccccc1)[C@@H]1CCCCN1[C@@]21C(=O)c2cccc3cccc1c23`, the midpoint of inhibition, the IC50, lay at 18.3 µM.

`CN1C/C(=C\c2cccc(F)c2)C(=O)[C@]2(C1)[C@@H](c1cccc(F)c1)[C@@H]1CSCN1[C@@]21C(=O)c2cccc3cccc1c23` gave an IC50 of 11.2 µM.

For `CN1C/C(=C\c2ccccc2Br)C(=O)[C@]2(C1)[C@@H](c1ccccc1Br)[C@@H]1CSCN1[C@@]21C(=O)c2cccc3cccc1c23`, the IC50 stood at 10.1 µM.

`CN1C/C(=C\c2ccc(Br)cc2)C(=O)[C@]2(C1)[C@@H](c1ccc(Br)cc1)[C@@H]1CSCN1[C@@]21C(=O)c2cccc3cccc1c23`: 20.3 µM corresponded to half-maximal inhibition (IC50).

On to `CN1C/C(=C\c2ccc(F)cc2)C(=O)[C@]2(C1)[C@@H](c1ccc(F)cc1)[C@@H]1CCCCN1[C@@]21C(=O)c2cccc3cccc1c23`, for which half-maximal inhibition (IC50) was put at 12.6 µM.

Turning to `CN1C/C(=C\c2ccccc2Cl)C(=O)[C@]2(C1)[C@@H](c1ccccc1Cl)[C@@H]1CCCCN1[C@@]21C(=O)c2cccc3cccc1c23`, the IC50 amounted to 21.3 µM.

As to `CN1C/C(=C\c2ccc([N+](=O)[O-])cc2)C(=O)[C@]2(C1)[C@@H](c1ccc([N+](=O)[O-])cc1)[C@@H]1CCCCN1[C@@]21C(=O)c2cccc3cccc1c23`, the midpoint of inhibition, the IC50, lay at 9.16 µM. Against the preceding molecule, the IC50 is about 2.3-fold lower.

Turning to `CN1C/C(=C\c2ccccc2)C(=O)[C@]2(C1)[C@@H](c1ccccc1)[C@@H]1CSCN1[C@@]21C(=O)c2cccc3cccc1c23`, the IC50 was 16.5 µM.

The values above are taken from ChEMBL document CHEMBL2401706, “An atom economic synthesis and AChE inhibitory activity of novel dispiro 7-aryltetrahydro-1H-pyrrolo[1,2-c][1,3]thiazole and 4-aryloctahydroindolizine N-methylpiperidin-4-one hybrid heterocycles” (Eur J Med Chem, 2013).
